Test system: human knee osteoarthritis patients
Test: Randomized placebo-controlled double-blind trial, WOMAC A (pain) evaluation by VAS
Assay type: in vivo
Conditions: 12 weeks after initial administration; for WOMAC-A Change (average change from baseline): MMRM estimate
Method: The effectiveness of the investigational drug (test drug (composition for treating joint disease of invention) or placebo) when administered 3 times at four-week intervals in the knee joint cavities of human knee osteoarthritis patients was investigated by a multi-center collaborative, randomized, placebo-controlled, double-blind, parallel-group comparison trial. The test drug and placebo were as follows:
Test drug: 3 mL of aqueous solution for injection containing 30 mg of test substance (3.6 mg as diclofenac);
The total amount (3 mL) of the test drug or placebo was administered (injected) into the knee joint cavities of the affected knees of the target patients on week 0, week 4 and week 8 for a total of three injections.
Effectiveness was evaluated by the following evaluation methods at the time of the initial administration and at evaluation points 1, 2, 4, 6, 8, 10 and 12 weeks after the initial administration.
Effectiveness was evaluated using the WOMAC® evaluation (The Journal of Rheumatology 1988; 15:12, p. 1833-1840) developed by Dr. Nicholas Bellamy. The WOMAC(r) evaluation has been established as a method for evaluating osteoarthritis (The Journal of Rheumatology 2000; 27:11, p. 2635-2641).
The patient response method used the VAS (Visual Analog Scale). With the VAS, the degree of a patient's own feelings in response to each question is indicated by the patient on a 100 mm line, and the degree is evaluated according to the position on the line. Position is represented as length from the left end of the scale. For example, a patient is asked the same question about pain in evaluations before and after administration, and the patient responds by indicating a position (degree) on the scale. Numerical values for improvement are then obtained based on the difference between the length indicated by the patient before administration (baseline) and the length indicated by the patient during each evaluation after administration.
The improvement effects were quantified based on the difference between the length indicated by the patient before administration (baseline) and the length indicated by the patient at the time of each evaluation after administration. The analysis results for questions about pain (WOMAC® A: evaluates intensity of pain during walking, etc.) are shown in Table 1 below. In the table, the lower the value of the change difference below 0, the greater the improvement effect.

Sodium hyaluronate with introduced aminoethanol-diclofenac [Test Drug]
WOMAC-A Change difference (test drug group minus placebo group) (patients with 25 ≤ BMI and 26 ≤ DP (weeks)): −13.7
WOMAC-A Change (average change from baseline) (patients with 25 ≤ BMI and 26 ≤ DP (weeks), VAS 100 mm line): −30.7
WOMAC-A Change difference (test drug group minus placebo group) (patients with 25 ≤ BMI and 26 ≤ DP (weeks), listed as test drug): extremely great improvement effect
WOMAC-A Change difference (test drug group minus placebo group) (patients with BMI 25≤ kg/m^2): −13.4
WOMAC-A Change (average change from baseline) (patients with BMI 25≤ kg/m^2, VAS 100 mm line): −32.6
WOMAC-A Change difference (test drug group minus placebo group) (patients with BMI <25 and/or DP <26 weeks): −3.2
WOMAC-A Change (average change from baseline) (patients with BMI <25 and/or DP <26 weeks, VAS 100 mm line): −27.2
WOMAC-A Change difference (test drug group minus placebo group) (patients with BMI <25 kg/m^2): −2.1
WOMAC-A Change (average change from baseline) (patients with BMI <25 kg/m^2, VAS 100 mm line): −25.2
WOMAC-A Change (average change from baseline) (whole group, 30 mg test substance intra-articular at weeks 0, 4, 8, VAS 100 mm line): −28.7
WOMAC-A Change difference (test drug group minus placebo group) (whole group, VAS 100 mm line): −7.0

From patent US10925839B2, “Composition for treating joint disease and kit containing same” (SEIKAGAKU CORPORATION, priority 2017, dated 2021)
